These results are taken from ChEMBL document CHEMBL4706475, “Multiparameter Lead Optimization to Give an Oral Checkpoint Kinase 1 (CHK1) Inhibitor Clinical Candidate: (R)-5-((4-((Morpholin-2-ylmethyl)amino)-5-(trifluoromethyl)pyridin-2-yl)amino)pyrazine-2-carbonitrile (CCT245737)” (J Med Chem, 2016).

Data set [1] is described as follows: in vivo. To be noted: mouse, iv, 10 mg/kg.
Data set [2] can be described thus: in vivo. To be noted: mouse, iv, 10 mg/kg. The source holds these as a separate data set.
Data set [3] is described as follows: in vivo. The note with it: mouse, po, 10 mg/kg.
Data set [4] in a line: in vivo. To be noted: mouse, iv, 10 mg/kg. This is another data set of the same source.
The nature of data set [5]: in vitro. To be noted: mouse, liver microsomes. A general note: Microsomes from liver hold many membrane-bound enzymes, among them those of drug oxidation.
A short description of data set [6]: in vivo. To be noted: mouse, po, 5 mg/kg.
Data set [7] is described as follows: in vivo. The note with it: mouse, iv, 5 mg/kg.
The nature of data set [8]: in vivo. The note with it: mouse, iv, 5 mg/kg. The source holds these as a separate data set.
Data set [9] can be described thus: in vivo. The note with it: mouse, iv, 5 mg/kg. The source holds these as a separate data set.
Data set [10] is described as follows: Free drug level in NCr athymic mouse plasma xenografted with human HT-29 cells at 12.5 to 100 mg/kg, po administered as single dose measured at 24 hrs. It counts as ADME, organism-based. To be noted: in vivo, dose 12.5-100 mg/kg. In general terms: In xenograft studies the graft and the host belong to different species.
The nature of data set [11]: Metabolic stability in human liver microsomes in presence of glutathione. It counts as ADME, Microsome.
Data set [12] can be described thus: in vivo. To be noted: rat.
Data set [13] in a line: in vitro. The note with it: human, hepatocytes.
The nature of data set [14]: Metabolic stability in human liver microsomes in absence of glutathione. The class given is ADME, Microsome.
For data set [15] the following is noted: mouse, in vivo, po, 10 mg/kg.
Data set [16] can be described thus: in vivo. To be noted: rat. The source holds these as a separate data set.
Data set [17] is described as follows: Intrinsic clearance in dog hepatocytes at 3 uM assessed per million cells. The class given is ADME, cell-based, Canis lupus familiaris, Hepatocyte. The note with it: read-out: CLH.
Data set [18] is described as follows: Basicity constant, pKa of the compound by UV metric assay. It counts as physicochemical.
The nature of data set [19]: Solubility of compound in pure water. The class given is physicochemical.
The nature of data set [20]: Lipophilicity, logD of the compound at pH 7.4 by LC-MS/MS analysis. The note with it: buffer. The class given is physicochemical.
A short description of data set [21]: Solubility of compound in phosphate buffer at pH 6.5. It counts as physicochemical.
The nature of data set [22]: Passive permeability in human Caco2 cells. It counts as ADME, cell-based. To be noted: caco-2.
The nature of data set [23]: in vivo. To be noted: NCr athymic, mouse, plasma, po, 300 mg/kg.
A short description of data set [24]: Intrinsic clearance in rat hepatocytes at 3 uM assessed per million cells. The class given is ADME, cell-based, Hepatocyte. The note with it: read-out: CLH.
A short description of data set [25]: in vitro. The note with it: CD-1, mouse, hepatocytes.
A short description of data set [26]: in vivo. The note with it: rat, po.

For orientation: Vd means a proportionality between amount in the body and measured concentration, not a real space. Low readings indicate little distribution into tissue, high ones wide distribution into tissue. A word on the half-life: it is the time in which the quantity being followed falls by half. What is called bioavailability is the share of a dose that reaches the circulation, judged against a reference dose that is usually intravenous. Read a high bioavailability as much systemic uptake. The term clearance denotes the rate of elimination divided by the concentration. Higher therefore signals efficient removal. For orientation: pKa means the pH at which an ionisable group is half protonated. A higher pKa goes with a weaker acid or stronger base. A word on the solubility: it is how much of the substance goes into solution per volume. A lower solubility goes with a poorly soluble substance. What is called logD is lipophilicity at a set pH, counting ionised and neutral species.

In brackets after ≈: the same amount, converted by molar mass.

`CC(C)(O)C#Cc1cnc(Nc2cnc(C#N)cn2)cc1NC[C@@H]1CNCCO1`: the volume of distribution (Vd) in data set [1] turned out to be 10.4 L/kg. Besides, the half-life in [2] was 3.8 h. In data set [3], this molecule came in with a bioavailability of 10%. This molecule also gave a clearance in data set [4] of 138 mL/min/kg.
The molecule `COC(=O)c1cnc(Nc2cnc(C#N)cn2)cc1NCCC1CCNCC1` had a metabolised at 0.5 h in data set [5] of 26%. Further, the bioavailability in data set [6] was 44%. In data set [7], the Vd was found to be 60.5 L/kg. In data set [8], this molecule had a clearance of 141 mL/min/kg. For the same molecule, the half-life in data set [9] was 11 h.
Regarding `N#Cc1cnc(Nc2cc(NC[C@H]3CNCCO3)c(C(F)(F)F)cn2)cn1` [SRA-737], the “Cp(f)” value in data set [10] stood at 0.015 µM. Further, the Stabilty result in [11] and in data set [14] was “Stable” throughout. Besides, the clearance in [12] was 58.3 mL/min/kg; in data set [4], 44.2 mL/min/kg. In addition, the hepatocyte CLint at 3 µM is 2.72 µL/min/1e6 cells in data set [13], 55 µL/min/1e6 cells in data set [17], 43.4 µL/min/1e6 cells in data set [24] and 25.7 µL/min/1e6 cells in data set [25]. Also, the results for the Vd in data set [1] and in data set [16] were 9.25 L/kg and 4.6 L/kg, respectively. In data set [15], this molecule registered an F of 105%. Further, in data set [18], the pKa came to 7.87. Further, the values for the solubility in [19] and in data set [21] were 90 µg/mL (≈ 237 µM) and 1500 µg/mL (≈ 3950 µM), respectively. The half-life in data set [2] is 2.9 h. Further, in [20], the logD stood at 1.47. Also, in data set [22], the permeability was 25 10^-6 cm/s. Besides, the concentration at 24 h in data set [23] stood at 4 µM. Moreover, in [26], the bioavailability came out at 38%.
Consider `N#Cc1cnc(Nc2cc(NC[C@H]3CNCCO3)c(-c3cccc(F)c3)cn2)cn1`, for which, in [1], the Vd worked out at 26.8 L/kg. In addition, the half-life in [2] was 4.3 h. Further, the bioavailability in data set [3] came out at 53%. Moreover, the clearance in [4] is 113 mL/min/kg.
`N#Cc1cnc(Nc2cc(NC[C@@H]3CNCCO3)c(C3CC3)cn2)cn1` showed a Vd in data set [1] of 43.9 L/kg. This molecule also had a half-life in data set [2] of 8.1 h. Further, the bioavailability in data set [3] was determined as 68%. Further, in data set [4], the clearance is 112 mL/min/kg.
